In patent US12559449B2, “Aromatic ring or heteroaromatic ring derivatives, preparation method therefor and use thereof” (ZHEJIANG HISUN PHARMACEUTICAL CO., LTD., priority 2019, dated 2026):
Like-named read-outs stand apart in the source and are kept apart here.

Experiments:
AT1R = target: T1, AT1R (Homo sapiens, UniProt P30556); experiment: Antagonistic activity on AT1R, same method with Tb-labeled-AT1R cells; format: binding
T1 construct: Tb (terbium) label on the receptor; expressed in transfected cells
T1 sequence (P30556 1-359): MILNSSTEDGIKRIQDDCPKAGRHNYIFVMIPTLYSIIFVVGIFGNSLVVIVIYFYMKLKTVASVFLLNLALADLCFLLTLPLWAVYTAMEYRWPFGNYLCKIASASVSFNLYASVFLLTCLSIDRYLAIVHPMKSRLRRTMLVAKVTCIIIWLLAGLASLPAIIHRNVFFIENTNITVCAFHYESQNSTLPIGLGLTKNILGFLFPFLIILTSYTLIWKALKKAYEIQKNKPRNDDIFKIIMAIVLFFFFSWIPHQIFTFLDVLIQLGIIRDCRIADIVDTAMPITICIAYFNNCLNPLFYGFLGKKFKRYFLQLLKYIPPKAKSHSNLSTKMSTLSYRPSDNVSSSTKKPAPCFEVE

human AT2R = target: T2, human AT2R (Homo sapiens, UniProt P50052); experiment: Antagonistic activity on the binding of human AT2R ligand (Tag-lite HTRF ligand binding, Tb-labeled-AT2R cells); settings: red agonist fluorescent ligand, 1 hour room temperature
T2 construct: Tb (terbium) label on the receptor; expressed in transfected cells
T2 sequence (P50052 1-363): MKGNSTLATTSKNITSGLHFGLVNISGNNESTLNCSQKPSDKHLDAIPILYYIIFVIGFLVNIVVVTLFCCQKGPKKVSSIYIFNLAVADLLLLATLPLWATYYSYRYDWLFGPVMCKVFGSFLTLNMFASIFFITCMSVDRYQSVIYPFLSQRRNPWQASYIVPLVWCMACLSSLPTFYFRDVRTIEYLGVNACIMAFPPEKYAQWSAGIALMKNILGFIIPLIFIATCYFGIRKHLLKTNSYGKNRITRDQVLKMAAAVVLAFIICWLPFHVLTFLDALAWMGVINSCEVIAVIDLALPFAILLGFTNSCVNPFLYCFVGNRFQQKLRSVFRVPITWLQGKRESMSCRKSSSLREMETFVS
Method: Test Example 1 Test of the Antagonistic Activity of the Compound of the Present Disclosure on the Binding of Human AT2R Ligand
Angiotensin II Type 2 Receptor (AT2R) is involved in neuron differentiation and regeneration, cell proliferation and angiogenesis, and maintenance of bone mass. […] The following method uses the AT2 ligand binding test to study the degree of antagonism of the compounds of the present disclosure to AT2R.
2. Reagent Preparation • (1) 10 mM of angiotensin II human: 10 mg of Angiotensin II human (purity 99.09%) was dissolved in 0.947 mL of deionized water, aliquoted and stored at −80° C.; • (2) Preparation of compound stock solution
3. […] 4. Experimental Results

[1] = Pharmacokinetics in SD rats, intravenous injection or intragastric administration; format: in vivo; settings: for half-life / MRT / bioavailability / Cmax: male, Sprague-Dawley, rat, plasma; for half-life: read-out: half-life T1/2 (converted); for MRT: read-out: residence time MRT; for bioavailability: read-out: bioavailability F; for Cmax: read-out: drug concentration in blood, Cmax
From the text: Test Example 3. Study on Oral Pharmacokinetics of the Compounds of the Present Disclosure in SD Rats
SD rats were taken as the test animals. The LC/MS/MS method was used to determine the intravenous injection or intragastric administration of the compounds of the present disclosure in rats, and to determine the drug concentration in plasma at different time points to study the pharmacokinetic characteristics of the compounds of the present disclosure in rats.
Experimental drugs: Olodanrigan, compounds 12, 14, 15 and 16 of the present disclosure;
Animals: 30 healthy adult Sprague Dawley (SD) male rats, purchased from Weitong Lihua Experimental Animal Technology Co. Ltd., production license number: 11400700271077.
An appropriate amount of samples were weighed, and added with DMA, solutol HS 15 (30%, w/v) and normal saline respectively, and then subjected to ultrasound and filtered through PTFE membrane to make a 0.2 mg/mL solution.
An appropriate amount of samples were weighed, added with 0.5% sodium carboxymethyl cellulose (CMC-Na) (containing 0.5% Tween 80), and ultrasonically prepared into a 1 mg/mL suspension. […]
About 0.2 mL of blood was collected from the jugular vein before administration and at 0.083 hours, 0.25 hours, 0.5 hours, 1 hour, 2 hours, 4 hours, 8 hours, 12 hours, and 24 hours after administration, and heparin sodium was used for anticoagulation. The blood samples were collected on ice and centrifuged to separate the plasma (centrifugation conditions: 1500 g, 10 minutes). The collected plasma was stored at −40 to −20° C. before analysis.
10 μL of plasma sample was taken and added with 400 μL of acetonitrile (comprising internal standard working solution which contained verapamil 5 ng/mL and glibenclamide 50 ng/mL). It was vortexed for 10 minutes, centrifuge at 3700 rpm for 10 minutes. 70 μL of the supernatant was taken and added with 70 μL of water, and vortexed for 10 minutes. 2 μL of the mixed solution was taken and injected into LC-MS/MS for sample analysis.

[2] = Metabolic stability in rat liver microsomes; format: in vitro ADME; settings: pH 7.4; rat liver microsomes 0.5 mg/mL, 1 μM compound, NADPH 1 mM, 0-60 min; read-out: half-life/(T1/2, min)
Method: Test Example 2. Study on the Metabolic Stability of the Compounds of the Present Disclosure in Rat Liver Microsomes
The purpose of this experimental study is to study the metabolic stability of the compounds of the present disclosure in rat liver microsomes.
The test compounds were co-incubated with rat liver microsomes, and the coenzyme NADPH was added to initiate the reaction. At 0, 5, 15, 30, and 60 minutes, 20 μL of incubation solution was taken out and transferred to 200 μL of acetonitrile containing internal standard to stop the reaction. After protein precipitation, it was centrifuged at 3,700 rpm for 10 minutes. The supernatant was taken and analyzed by LC-MS/MS method after being diluted at 1:1 with water. According to the elimination half-life of the test compound in the incubation system, the in vitro clearance rate was calculated. Midazolam was used as the internal reference compound and incubated for 2 copies in parallel.
The ratio of analyte/internal standard peak area (Aanalyte/AIS) was obtained from the instrument, and the remaining percentage (% Control) was calculated as the ratio of Aanalyte/AIS in the non-zero time point sample to the zero time point sample. Ln (% Control) versus incubation time was plotted and subjected to a linear fitting. The clearance constant (k, min-) and clearance half-life (T1/2, min) of the test compounds were calculated by the following equations.
[formula] 4. Experimental Results

[3] = oral (3 mg/kg) versus injection (1 mg/kg)
[4] = 3 mg/kg, oral (mg/kg), dose not given
[5] = oral (mg/kg), dose figure not given, versus injection (1 mg/kg)

With `CN(C(=O)C(c1ccccc1)c1ccccc1)c1cnc(N2CCCOc3ccc(F)cc32)cc1C(=O)O` [Compound 5, 2-(7-fluoro-3,4-dihydrobenzo[b][1,4]oxazepine-5(2H)-yl)-5-(N-methyl-2,2-diphenylacetamido)isonicotinic acid] the IC50 (AT1R) was over 10 µM and the IC50 (human AT2R) was 10 nM.

In the case of `O=C(O)c1cc(N2CCCOc3ccc(F)cc32)ncc1-c1nc2ccc(F)cc2o1` [Compound 15, 2-(7-fluoro-3,4-dihydrobenzo[b][1,4]oxazepine-5(2H)-yl)-5-(6-fluorobenzo[d]oxazol-2-yl)isonicotinic acid], the “area under curve AUO0-∞” value ([1]; injection (1 mg/kg)) is reported as 12100 ± 751 ng·h/mL, the half-life ([1]; iv, injection (1 mg/kg)) is reported as 4.5 ± 0.4 h and the MRT ([1]; iv, injection (1 mg/kg)) is reported as 4.5 ± 0.4 h. The bioavailability [1, 3] was 89.9%, the Cmax ([1]; oral (3 mg/kg)) was 7050 ± 2640 ng/mL and the half-life ([1]; oral (3 mg/kg)) was 4.2 ± 0.4 h. The MRT ([1]; oral (3 mg/kg)) was 5.2 ± 0.4 h, the “area under curve AUO0-∞” value ([1]; oral (3 mg/kg)) was 32400 ± 6514 ng·h/mL and the half-life at 1 μM [2] was 160 min.

In the case of `COc1ccc2c(c1OCc1ccccc1)C[C@@H](C(=O)O)N(C(=O)C(c1ccccc1)c1ccccc1)C2` [olodanrigan, reference compound], the IC50 (AT1R) is reported as over 10 µM, the “area under curve AUO0-∞” value ([1]; injection (1 mg/kg)) is reported as 1230 ± 96 ng·h/mL and the Cmax [1, 4] is reported as 470 ± 197 ng/mL. It also gave a half-life [1, 4] of 1.5 ± 0.3 h, an MRT [1, 4] of 2.6 ± 1 h and a half-life ([1]; iv, injection (1 mg/kg)) of 1.6 ± 0.3 h. The MRT ([1]; iv, injection (1 mg/kg)) was 0.92 ± 0.16 h, the bioavailability [1, 5] was 12.1% and the “area under curve AUO0-∞” value ([1]; oral (mg/kg), dose not given) was 1483 ± 715 ng·h/mL. The half-life at 1 μM [2] was 96.3 min.

In the case of `N#Cc1ccc2nc(-c3cnc(N4CCCOc5ccc(F)cc54)cc3C(=O)O)oc2c1` [Compound 16, 5-(6-cyanobenzo[d]oxazol-2-yl)-2-(7-fluoro-3,4-dihydrobenzo[b][1,4]oxazepine-5(2H)-yl)isonicotinic acid], the “area under curve AUO0-∞” value ([1]; injection (1 mg/kg)) is reported as 20800 ± 1740 ng·h/mL, the Cmax [1, 4] is reported as 5250 ± 315 ng/mL and the half-life [1, 4] is reported as 3.7 ± 0.4 h. It also gave an MRT [1, 4] of 5.5 ± 0.4 h, a half-life ([1]; iv, injection (1 mg/kg)) of 3.3 ± 0.2 h and an MRT ([1]; iv, injection (1 mg/kg)) of 3.2 ± 0.3 h. For the same molecule, the bioavailability [1, 5] was 41.3%, the “area under curve AUO0-∞” value ([1]; oral (mg/kg), dose not given) was 25800 ± 6100 ng·h/mL and the half-life at 1 μM [2] was 598 min.

For `O=C(O)c1cc(N2CCCOc3ccc(F)cc32)ncc1-c1nc2ccccc2o1` [Compound 12, 5-(benzo[d]oxazol-2-yl)-2-(7-fluoro-3,4-dihydrobenzo[b][1,4]oxazepine-5(2H)-yl)isonicotinic acid], the “area under curve AUO0-∞” value ([1]; injection (1 mg/kg)) was 16200 ± 3530 ng·h/mL, the half-life ([1]; iv, injection (1 mg/kg)) was 8.1 ± 2.1 h and the MRT ([1]; iv, injection (1 mg/kg)) was 7.3 ± 1.5 h. The bioavailability [1, 3] was 83.1%, the Cmax ([1]; oral (3 mg/kg)) was 8650 ± 6020 ng/mL and the half-life ([1]; oral (3 mg/kg)) was 4.7 ± 0.3 h. For the same molecule, the MRT ([1]; oral (3 mg/kg)) was 6.1 ± 0.5 h, the “area under curve AUO0-∞” value ([1]; oral (3 mg/kg)) was 40400 ± 14272 ng·h/mL and the half-life at 1 μM [2] was 288 min.

With `CN(C(=O)C(c1ccccc1)c1ccccc1)c1cnc(N2CCCOc3cc(F)c(F)cc32)cc1C(=O)O` [Compound 6, 2-(7,8-difluoro-3,4-dihydrobenzo[b][1,4]oxazepine-5(2H)-yl)-5-(N-methyl-2,2-diphenylacetamido)isonicotinic acid] the IC50 (AT1R) was over 10 µM and the IC50 (human AT2R) was 26 nM.

In the case of `CN(C(=O)C(c1ccccc1)c1ccccc1)c1ccc(N2CCCOc3ccc(F)cc32)cc1C(=O)O` [Compound 4, 5-(7-fluoro-3,4-dihydrobenzo[b][1,4]oxazepine-5(2H)-yl)-2-(N-methyl-2,2-diphenylacetamido)benzoic acid], the IC50 (AT1R) is reported as over 10 µM, the IC50 (human AT2R) is reported as 37 nM and the half-life at 1 μM [2] is reported as 185 min.

For `O=C(O)c1cc(N2CCCOc3ccc(F)cc32)ncc1-c1nc2cc(F)ccc2o1` [Compound 14, 2-(7-fluoro-3,4-dihydrobenzo[b][1,4]oxazepine-5(2H)-yl)-5-(5-fluorobenzo[d]oxazol-2-yl)isonicotinic acid], the “area under curve AUO0-∞” value ([1]; injection (1 mg/kg)) was 13800 ± 1370 ng·h/mL, the half-life ([1]; iv, injection (1 mg/kg)) was 4.7 ± 0.4 h and the MRT ([1]; iv, injection (1 mg/kg)) was 4.5 ± 0.2 h. The bioavailability [1, 3] was 105%, the Cmax ([1]; oral (3 mg/kg)) was 14300 ± 5130 ng/mL and the half-life ([1]; oral (3 mg/kg)) was 3.6 ± 0.2 h. The MRT ([1]; oral (3 mg/kg)) was 4.7 ± 0.3 h, the “area under curve AUO0-∞” value ([1]; oral (3 mg/kg)) was 43400 ± 11173 ng·h/mL and the half-life at 1 μM [2] was 600 min.

For `CN(C(=O)C(c1ccccc1)c1ccccc1)c1ccc(N2CCCOc3ccc(F)cc32)nc1C(=O)O` [Compound 8, 6-(7-fluoro-3,4-dihydrobenzo[b][1,4]oxazepine-5(2H)-yl)-3-(N-methyl-2,2-diphenylacetamido)picolinic acid], the IC50 (AT1R) was over 10 µM and the IC50 (human AT2R) was 28 nM.
